Drawing on patent publication US20260317299A1, “PIKFYVE PROTEIN KINASE DEGRADATION AGENT AND USE THEREOF” (Shanghai Institute of Organic Chemistry, Chinese Academy of …, priority 2023, published 2026), this text covers DC50 for 16 compounds.

T1 sequence (Q9Y2I7 whole entry): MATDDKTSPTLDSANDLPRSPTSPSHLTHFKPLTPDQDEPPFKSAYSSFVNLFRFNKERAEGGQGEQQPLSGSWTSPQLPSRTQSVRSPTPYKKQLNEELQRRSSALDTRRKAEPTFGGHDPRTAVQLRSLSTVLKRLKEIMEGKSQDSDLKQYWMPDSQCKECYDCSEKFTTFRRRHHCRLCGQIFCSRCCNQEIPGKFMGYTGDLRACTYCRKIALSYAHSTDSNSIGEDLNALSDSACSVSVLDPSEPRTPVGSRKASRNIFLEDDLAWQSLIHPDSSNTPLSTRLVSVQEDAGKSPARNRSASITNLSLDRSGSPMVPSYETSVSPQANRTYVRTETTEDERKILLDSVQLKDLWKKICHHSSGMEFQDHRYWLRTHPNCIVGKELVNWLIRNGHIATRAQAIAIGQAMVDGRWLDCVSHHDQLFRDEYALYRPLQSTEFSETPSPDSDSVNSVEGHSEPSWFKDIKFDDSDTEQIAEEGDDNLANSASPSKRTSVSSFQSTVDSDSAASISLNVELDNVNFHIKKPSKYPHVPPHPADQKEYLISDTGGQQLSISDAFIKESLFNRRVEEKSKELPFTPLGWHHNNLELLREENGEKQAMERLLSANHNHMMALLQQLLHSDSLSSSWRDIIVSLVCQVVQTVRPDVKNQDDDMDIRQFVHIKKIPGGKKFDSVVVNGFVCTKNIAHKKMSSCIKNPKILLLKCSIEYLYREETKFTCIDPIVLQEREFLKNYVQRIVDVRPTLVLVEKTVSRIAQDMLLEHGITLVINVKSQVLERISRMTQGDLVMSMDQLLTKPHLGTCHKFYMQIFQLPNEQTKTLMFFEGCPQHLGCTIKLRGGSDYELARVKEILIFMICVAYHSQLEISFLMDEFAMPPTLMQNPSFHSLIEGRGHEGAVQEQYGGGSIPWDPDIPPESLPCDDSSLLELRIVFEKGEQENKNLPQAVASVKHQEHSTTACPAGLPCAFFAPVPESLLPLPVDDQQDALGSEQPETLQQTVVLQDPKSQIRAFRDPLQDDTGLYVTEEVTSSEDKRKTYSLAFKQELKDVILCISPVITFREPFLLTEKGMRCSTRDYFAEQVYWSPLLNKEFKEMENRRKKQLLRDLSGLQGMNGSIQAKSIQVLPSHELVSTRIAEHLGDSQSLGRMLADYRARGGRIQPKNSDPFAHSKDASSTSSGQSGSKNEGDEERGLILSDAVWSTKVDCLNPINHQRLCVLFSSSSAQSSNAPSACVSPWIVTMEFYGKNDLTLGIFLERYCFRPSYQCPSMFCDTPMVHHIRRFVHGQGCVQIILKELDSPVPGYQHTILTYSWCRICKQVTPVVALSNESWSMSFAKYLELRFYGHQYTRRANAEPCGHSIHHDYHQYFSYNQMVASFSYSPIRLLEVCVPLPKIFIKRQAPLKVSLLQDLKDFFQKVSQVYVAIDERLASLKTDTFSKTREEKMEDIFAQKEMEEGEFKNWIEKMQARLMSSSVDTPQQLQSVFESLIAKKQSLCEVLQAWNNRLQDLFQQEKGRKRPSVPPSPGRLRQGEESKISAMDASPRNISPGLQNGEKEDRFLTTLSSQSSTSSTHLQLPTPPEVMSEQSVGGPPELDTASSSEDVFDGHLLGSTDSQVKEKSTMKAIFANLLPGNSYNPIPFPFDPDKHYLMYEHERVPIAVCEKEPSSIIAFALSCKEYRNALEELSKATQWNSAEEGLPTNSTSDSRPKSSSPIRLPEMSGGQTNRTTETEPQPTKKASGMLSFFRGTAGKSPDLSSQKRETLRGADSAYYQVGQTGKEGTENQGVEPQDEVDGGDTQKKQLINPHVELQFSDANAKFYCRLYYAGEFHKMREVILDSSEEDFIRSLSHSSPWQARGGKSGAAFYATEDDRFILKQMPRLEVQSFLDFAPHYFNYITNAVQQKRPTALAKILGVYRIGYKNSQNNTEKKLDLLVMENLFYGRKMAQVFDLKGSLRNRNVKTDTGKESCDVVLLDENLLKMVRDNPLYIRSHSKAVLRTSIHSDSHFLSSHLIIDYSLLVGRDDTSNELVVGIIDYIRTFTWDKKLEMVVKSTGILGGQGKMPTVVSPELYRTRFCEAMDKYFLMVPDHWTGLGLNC

The test addresses T1, PIKfyve (Homo sapiens, UniProt Q9Y2I7).
T1 construct: endogenous in cells; host or cells: VCaP
The test can be described thus: Degradation of PIKfyve proteins in VCaP tumor cells (24 h, Western blot). Conditions: 37° C., compared with DMSO control, WB, read-out: DC50 (concentration that achieves 50% degradation activity). The class given is cell-based. As to the method:
Method: 200 μL of cells at a density of 5×10^6 cells/ml were inoculated into a 6-well plate, and then different concentrations of drugs were added. The cells were treated at 37° C. for 24 h. The […] was collected and washed with PBS twice. Then, 100-200 μL of 1×SDS lysate was added, and the cell lysate was collected into a centrifuge tube. The cells were disrupted ultrasonically for 10-20 sec, and boiled for 10 min. Protein samples were subjected to SDS-PAGE electrophoresis at a voltage of 90 V, transferred to PVDF membranes at 110 V, blocked with 5% BSA for 4 h, incubated with primary antibodies (PIKfyve, GAPDH) at 4° C. overnight, and incubated with secondary antibodies (anti-Rabbit IgG or anti-Mouse IgG) at room temperature. The membranes were washed with TBST buffer, developed with an ECL developing solution, and then imaged to obtain protein band signals, with single-concentration WB results as shown in FIG. 1. Compared with the DMSO control group, the concentration that achieves 50% degradation activity is defined as DC50.
(In general: In western blotting, separated proteins are transferred to a membrane and probed.)
For `Cc1cccc(/C=N/Nc2cc(N3CCOCC3)nc(OCCc3ccc(NC(=O)CC[C@H](NC(=O)[C@@H]4C[C@@H](O)CN4C(=O)[C@@H](NC(=O)C4(F)CC4)C(C)(C)C)c4ccc(-c5scnc5C)cc4)cc3)n2)c1` [Example 49, (2S,4R)-1-((S)-2-(1-fluorocyclopropane-1-carboxamido)-3,3-dimethylbutanoyl)-4-hydroxy-N—((S)-4-((4-(2-((4-(2-((E)-3-methylbenzylidene)hydrazino)-6-morpholinopyrimidin-2-yl)oxy)ethyl)phenyl)amino)-1-(4-(4-methylthiazol-5-yl)phenyl)4-oxobutyl)pyrrolidine-2-carboxamide], the DC50 was in the range of 0.001 to 0.1 µM.

With `Cc1cccc(/C=N/Nc2cc(N3CCOCC3)nc(OCCc3ccc(NC(=O)CCCCCCCCC(=O)Nc4cccc5c4CN(C4CCC(=O)NC4=O)C5=O)cc3)n2)c1` (stereo not shown) [Example 22, (E)-N^1-(2-(2,6-dioxopiperidin-3-yl)-1-oxoisoindolin-4-yl)-N^10-(4-(2-((4-(2-(3-methylbenzylidene)hydrazino)-6-morpholinopyrimidin-2-yl)oxy)ethyl)phenyl)decanediamide], the DC50 lay in the range of 0.1 to 10 µM.

With `Cc1cccc(-c2ccn(-c3cc(N4CCOCC4)nc(OCCc4ccc(NC(=O)NC5CN(C(=O)C[C@H](NC(=O)[C@@H]6C[C@@H](O)CN6C(=O)[C@@H](NC(=O)C6(F)CC6)C(C)(C)C)c6ccc(-c7scnc7C)cc6)C5)cc4)n3)n2)c1` [Example 73, (2S,4R)-1-((S)-2-(1-fluorocyclopropane-1-carboxamido)-3,3-dimethylbutanoyl)-4-hydroxy-N—((S)-1-(4-(4-methylthiazol-5-yl)phenyl)-3-(3-(3-(4-(2-((4-morpholino-6-(3-(m-tolyl)-1H-pyrazol-1-yl)pyrimidin-2-yl)oxy)ethyl)phenyl)ureido)azetidin-1-yl)-3-oxopropyl) pyrrolidine-2-carboxamide], the DC50 was 0.001 to 0.1 µM.

Regarding `Cc1cccc(/C=N/Nc2cc(N3CCOCC3)nc(OCCNC(=O)CCCCC(=O)N[C@H](C(=O)N3C[C@H](O)C[C@H]3C(=O)NCc3ccc(-c4scnc4C)cc3)C(C)(C)C)n2)c1` [Example 62, N^1—((S)-1-((2S,4R)-4-hydroxy-2-((4-(4-methylthiazol-5-yl)benzyl)carbamoyl)pyrrolidine-1-yl)-3,3-dimethyl-1-oxobutan-2-yl)-N^6-(2-((4-(2-((E)-3-methylbenzylidene) hydrazino)-6-morpholinopyrimidin-2-yl)oxy)ethyl)adipamide], the DC50 was in the range of 0.1 to 10 µM.

Regarding `Cc1cccc(/C=N/Nc2cc(N3CCOCC3)nc(OCCc3ccc(NC(=O)CCCCCCCCC(=O)N[C@H](C(=O)N4C[C@H](O)C[C@H]4C(=O)NCc4ccc(-c5scnc5C)cc4)C(C)(C)C)cc3)n2)c1` [Example 40, N^1—((S)-1-((2S,4R)-4-hydroxy-2-((4-(4-methylthiazol-5-yl)benzyl)carbamoyl)pyrrolidine-1-yl)-3,3-dimethyl-1-oxobutan-2-yl)-N^10-(4-(2-((4-(2-((E)-3-methylbenzylidene) hydrazino)-6-morpholinopyrimidin-2-yl)oxy)ethyl)phenyl)decanediamide], the DC50 fell in the range of 0.001 to 0.1 µM. On to `Cc1cccc(/C=N/Nc2cc(N3CCOCC3)nc(OCCc3ccc(NC(=O)CCCCC(=O)Nc4ccc5c(c4)C(=O)N(C4CCC(=O)NC4=O)C5)cc3)n2)c1` (stereo not shown) [Example 29, (E)-N^1-(2-(2,6-dioxopiperidin-3-yl)-3-oxoisoindolin-5-yl)-N^6-(4-(2-((4-(2-(3-methylbenzylidene)hydrazino)-6-morpholinopyrimidin-2-yl)oxy)ethyl)phenyl)adipamide], for which the DC50 was in the range of 0.001 to 0.1 µM.

Consider `Cc1cccc(/C=N/Nc2cc(N3CCOCC3)nc(OCCc3ccc(NC(=O)CCCCCNc4ccc5c(c4)C(=O)N(C4CCC(=O)NC4=O)C5=O)cc3)n2)c1` (stereo not shown) [Example 17, (E)-6-((2-(2,6-dioxopiperidin-3-yl)-1,3-dioxoisoindolin-5-yl)amino)-N-(4-(2-((4-(2-(3-methylbenzylidene)hydrazino)-6-morpholinopyrimidin-2-yl)oxy)ethyl)phenyl) hexanamide], for which the DC50 lay in the range of 0.1 to 10 µM. The figure for `Cc1cccc(/C=N/Nc2cc(N3CCOCC3)nc(OCCc3ccc(NC(=O)COc4cc(-c5scnc5C)ccc4CNC(=O)[C@@H]4C[C@@H](O)CN4C(=O)[C@@H](NC(=O)C4(F)CC4)C(C)(C)C)cc3)n2)c1` [Example 53, (2S,4R)-1-((S)-2-(1-fluorocyclopropane-1-carboxamido)-3,3-dimethylbutanoyl)-4-hydroxy-N-(2-(2-((4-(2-((4-(2-((E)-3-methylbenzylidene)hydrazino)-6-morpholinopyrimidin-2-yl)oxy)ethyl)phenyl)amino)-2-oxoethoxy)-4-(4-methylthiazol-5-yl)benzyl)pyrrolidine-2-carboxamide] is 0.001 to 0.1 µM; for `Cc1cccc(-c2ccn(-c3cc(N4CCOCC4)nc(OCCc4ccc(NC(=O)CNC(=O)CC[C@H](NC(=O)[C@@H]5C[C@@H](O)CN5C(=O)[C@@H](NC(=O)C5(F)CC5)C(C)(C)C)c5ccc(-c6scnc6C)cc5)cc4)n3)n2)c1` [Example 65, (2S,4R)-1-((S)-2-(1-fluorocyclopropane-1-carboxamido)-3,3-dimethylbutanoyl)-4-hydroxy-N—((S)-1-(4-(4-methylthiazol-5-yl)phenyl)-4-((2-((4-(2-((4-morpholino-6-(3-(m-tolyl)-1H-pyrazol-1-yl)pyrimidin-2-yl)oxy)ethyl)phenyl)amino)-2-oxoethyl)amino)-4-oxobutyl)pyrrolidine-2-carboxamide] it is 0.001 to 0.1 µM; for `Cc1cccc(-c2ccn(-c3cc(N4CCOCC4)nc(OCCc4ccc(-c5ccc(NC(=O)C[C@H](NC(=O)[C@@H]6C[C@@H](O)CN6C(=O)[C@@H](NC(=O)C6(F)CC6)C(C)(C)C)c6ccc(-c7scnc7C)cc6)cc5)cc4)n3)n2)c1` [Example 87, (2S,4R)-1-((S)-2-(1-fluorocyclopropane-1-carboxamido)-3,3-dimethylbutanoyl)-4-hydroxy-N—((S)-1-(4-(4-methylthiazol-5-yl)phenyl)-3-((4′-(2-((4-morpholino-6-(3-(m-tolyl)-1H-pyrazol-1-yl)pyrimidin-2-yl)oxy)ethyl)-[1,1′-biphenyl]-4-yl)amino)-3-oxopropyl)pyrrolidine-2-carboxamide] it is 0.001 to 0.1 µM. As to `Cc1cccc(-c2ccn(-c3cc(N4CCOCC4)nc(OCCc4ccc(N5CCN(CC6CCN(c7cc8c(cc7F)C(=O)N(C7CCC(=O)NC7=O)C8=O)CC6)CC5)cc4)n3)n2)c1` (stereo not shown) [Example 91, 2-(2,6-Dioxopiperidin-3-yl)-5-fluoro-6-(4-((4-(4-(2-((4-morpholino-6-(3-(m-tolyl)-1H-pyrazol-1-yl)pyrimidin-2-yl)oxy)ethyl)phenyl)piperazin-1-yl)methyl)piperidin-1-yl)isoindoline-1,3-dione], the DC50 was in the range of 0.1 to 10 µM. The figure for `Cc1cccc(/C=N/Nc2cc(N3CCOCC3)nc(OCCc3ccc(NC(=O)CCCCCC(=O)N[C@H](C(=O)N4C[C@H](O)C[C@H]4C(=O)NCc4ccc(-c5scnc5C)cc4)C(C)(C)C)cc3)n2)c1` [Example 42, N^1—((S)-1-((2S,4R)-4-hydroxy-2-((4-(4-methylthiazol-5-yl)benzyl)carbamoyl)pyrrolidine-1-yl)-3,3-dimethyl-1-oxobutan-2-yl)-N^7-(4-(2-((4-(2-((E)-3-methylbenzylidene) hydrazino)-6-morpholinopyrimidin-2-yl)oxy)ethyl)phenyl)heptanediamide] is 0.001 to 0.1 µM.

Regarding `Cc1cccc(/C=N/Nc2cc(N3CCOCC3)nc(OCCc3ccc(NC(=O)CCCCCCCNc4ccc5c(c4)C(=O)N(C4CCC(=O)NC4=O)C5=O)cc3)n2)c1` (stereo not shown) [Example 18, (E)-8-((2-(2,6-dioxopiperidin-3-yl)-1,3-dioxoisoindolin-5-yl)amino)-N-(4-(2-((4-(2-(3-methylbenzylidene)hydrazino)-6-morpholinopyrimidin-2-yl)oxy)ethyl)phenyl) octanamide], the DC50 lay within 0.1 to 10 µM.

With `Cc1cccc(/C=N/Nc2cc(N3CCOCC3)nc(OCCc3ccc(NC(=O)CCCC(=O)N[C@H](C(=O)N4C[C@H](O)C[C@H]4C(=O)NCc4ccc(-c5scnc5C)cc4)C(C)(C)C)cc3)n2)c1` [Example 41, N^1—((S)-1-((2S,4R)-4-hydroxy-2-((4-(4-methylthiazol-5-yl)benzyl)carbamoyl)pyrrolidine-1-yl)-3,3-dimethyl-1-oxobutan-2-yl)-N^5-(4-(2-((4-(2-((E)-3-methylbenzylidene) hydrazino)-6-morpholinopyrimidin-2-yl)oxy)ethyl)phenyl)glutaramide], the DC50 is 0.001 to 0.1 µM.

As for `Cc1cccc(-c2ccn(-c3cc(N4CCOCC4)nc(OC4CCN(c5ccc(NC(=O)C[C@H](NC(=O)[C@@H]6C[C@@H](O)CN6C(=O)[C@@H](NC(=O)C6(F)CC6)C(C)(C)C)c6ccc(-c7scnc7C)cc6)cc5)CC4)n3)n2)c1` [Example 67, (2S,4R)-1-((S)-2-(1-fluorocyclopropane-1-carboxamido)-3,3-dimethylbutanoyl)-4-hydroxy-N—((S)-1-(4-(4-methylthiazol-5-yl)phenyl)-3-((4-(4-((4-morpholino-6-(3-(m-tolyl)-1H-pyrazol-1-yl)pyrimidin-2-yl)oxy)piperidin-1-yl)phenyl)amino)-3-oxopropyl)pyrrolidine-2-carboxamide], the DC50 is 0.001 to 0.1 µM. The figure for `Cc1cccc(/C=N/Nc2cc(N3CCOCC3)nc(OCCc3ccc(NC(=O)CCCCCCC(=O)Nc4ccc5c(c4)CN(C4CCC(=O)NC4=O)C5=O)cc3)n2)c1` (stereo not shown) [Example 26, (E)-N^1-(2-(2,6-dioxopiperidin-3-yl)-1-oxoisoindolin-5-yl)-N^8-(4-(2-((4-(2-(3-methylbenzylidene)hydrazino)-6-morpholinopyrimidin-2-yl)oxy)ethyl)phenyl)octanediamide] is 0.1 to 10 µM.
